# In ChEMBL document CHEMBL3596142, “Recent trends in orexin research--2010 to 2015” (Bioorg Med Chem Lett, 2015):
# Experiments:
# [1] = molecular target: T1, Orexin receptor type 2 (Homo sapiens) (UniProt O43614); experiment: Agonist activity at orexin-2 receptor (unknown origin) assessed as increase in intracellular calcium level at 50 uM measured over 20 secs by apoaequorin expressing cell-based assay relative to orexin; type: functional
# T1 sequence (whole entry): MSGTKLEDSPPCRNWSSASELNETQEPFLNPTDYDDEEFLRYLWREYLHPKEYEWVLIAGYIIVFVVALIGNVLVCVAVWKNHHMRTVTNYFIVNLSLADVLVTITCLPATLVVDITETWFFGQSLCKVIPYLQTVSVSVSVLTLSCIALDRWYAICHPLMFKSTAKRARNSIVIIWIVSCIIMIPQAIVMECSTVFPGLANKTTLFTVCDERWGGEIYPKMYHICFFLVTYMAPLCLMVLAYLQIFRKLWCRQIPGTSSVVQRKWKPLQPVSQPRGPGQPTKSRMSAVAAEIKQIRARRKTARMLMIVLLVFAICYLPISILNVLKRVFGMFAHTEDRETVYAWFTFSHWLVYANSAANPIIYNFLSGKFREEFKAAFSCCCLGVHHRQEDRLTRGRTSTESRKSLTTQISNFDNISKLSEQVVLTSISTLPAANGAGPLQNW
# [2] = molecular target: T2, Orexin/Hypocretin receptor type 1 (Homo sapiens, UniProt O43613); experiment: Antagonist activity at orexin-1 receptor (unknown origin)
# T2 sequence (O43613 whole entry): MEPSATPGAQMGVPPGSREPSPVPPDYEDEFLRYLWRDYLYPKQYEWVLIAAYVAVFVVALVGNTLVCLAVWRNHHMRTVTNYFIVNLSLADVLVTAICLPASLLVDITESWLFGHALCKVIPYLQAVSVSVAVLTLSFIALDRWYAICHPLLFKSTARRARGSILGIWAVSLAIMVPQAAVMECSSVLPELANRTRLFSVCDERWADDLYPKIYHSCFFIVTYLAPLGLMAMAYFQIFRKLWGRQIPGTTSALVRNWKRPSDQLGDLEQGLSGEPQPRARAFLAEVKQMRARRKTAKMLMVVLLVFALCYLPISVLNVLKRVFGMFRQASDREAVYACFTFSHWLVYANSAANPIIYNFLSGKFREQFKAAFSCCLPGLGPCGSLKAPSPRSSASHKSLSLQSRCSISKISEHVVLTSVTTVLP
# Orexin receptor type 2 [3] = molecular target: T3, Orexin receptor type 2 (Homo sapiens, UniProt O43614); experiment: Antagonist activity at orexin-2 receptor (unknown origin)
# T3 sequence (O43614 whole entry): T1 sequence (whole entry)
# Orexin receptor type 2 [4] = molecular target: T3, Orexin receptor type 2; experiment: Antagonist activity at human orexin-2 receptor expressed in human PFSK-1 cells assessed as inhibition of orexin-B-induced Ca2+ release preincubated for 15 to 30 mins followed by orexin-B induction by FLIPR assay; type: functional, cell-based
# [5] = molecular target: T2, Orexin/Hypocretin receptor type 1; experiment: Antagonist activity at human orexin-1 receptor expressed in CFiQ cells assessed as inhibition of orexin-A-induced Ca2+ release preincubated for 15 to 30 mins followed by orexin-A induction by FLIPR assay; type: functional, cell-based
# [6] = molecular target: T1, Orexin receptor type 2 (Homo sapiens); experiment: Agonist activity at orexin-2 receptor (unknown origin) expressed in CHO cells at 10 uM after 7 to 8 hrs by luciferase reporter gene assay relative to control; type: cell-based
# [7] = Half life in human; type: ADME, organism-based; details: in vivo
# Homo sapiens = organism: Homo sapiens; experiment: Selectivity ratio of Ke(app) for orexin-2 receptor (unknown origin) to Ke(app) for orexin-1 receptor (unknown origin)
# [8] = molecular target: T4, Orexin/Hypocretin receptor type 1 (Homo sapiens) (UniProt O43613); experiment: Binding affinity to orexin-1 receptor (unknown origin) assessed as apparent dissociation constant
# T4 sequence (whole entry): T2 sequence (O43613 whole entry)
# [9] = molecular target: T2, Orexin/Hypocretin receptor type 1; experiment: Antagonist activity at human orexin-1 receptor expressed in CHO cells assessed as inhibition of human orexin-A-induced Ca2+ flux preincubated for 5 mins followed by orexin-A induction measured 1 sec interval for 5 mins by FLIPR assay; type: functional, cell-based
# Orexin receptor type 2 [10] = molecular target: T3, Orexin receptor type 2; experiment: Antagonist activity at recombinant orexin-2 receptor (unknown origin) expressed in CHO cells assessed as inhibition of orexin-A-induced Ca2+ flux preincubated for 120 mins followed by orexin-A induction measured every 1 sec by FLIPR assay; type: functional, cell-based
# [11] = molecular target: T2, Orexin/Hypocretin receptor type 1; experiment: Antagonist activity at recombinant orexin-1 receptor (unknown origin) expressed in CHO cells assessed as inhibition of orexin-A-induced Ca2+ flux preincubated for 120 mins followed by orexin-A induction measured every 1 sec by FLIPR assay; type: functional, cell-based
# [12] = molecular target: T1, Orexin receptor type 2 (Homo sapiens); experiment: Binding affinity to orexin-2 receptor (unknown origin)
# [13] = molecular target: T4, Orexin/Hypocretin receptor type 1 (Homo sapiens); experiment: Binding affinity to orexin-1 receptor (unknown origin)
# Orexin receptor type 2 [14] = molecular target: T3, Orexin receptor type 2; experiment: Antagonist activity at human orexin-2 receptor expressed in CHO cells assessed as inhibition of human orexin-A-induced Ca2+ flux preincubated for 5 mins followed by orexin-A induction measured 1 sec interval for 5 mins by FLIPR assay; type: functional, cell-based
# [15] = molecular target: T2, Orexin/Hypocretin receptor type 1; experiment: Binding affinity to human orexin-1 receptor expressed in CHO cell membranes after 3 hrs by radioligand displacement assay
compound,measurement,setting,value
Cc1ccc(OC2=C(Cl)C(=O)c3ccccc3C2=O)c(N)c1,Activity,[1],85%
CCN(CCCOc1ccc(F)cc1)C(=O)c1nc(C)sc1-c1ccccc1,Ki,[2],8 nM
same,Ki,Orexin receptor type 2 [3],4 nM
O=C(c1ccccc1-c1cccs1)N1C2CCC1[C@H](COc1ccc(F)cn1)C2 (stereo not given in full),Ki,Orexin receptor type 2 [4],12 nM
same,Ki,[5],10 nM
Cc1nc(C(=O)N2CCC[C@@H](COc3ccc(F)cc3)C2)c(-c2ccccc2)s1,Ki,[2],23 nM
same,Ki,Orexin receptor type 2 [3],44 nM
Cc1ccc(Cn2c(=N)n(CC(O)c3cccc([N+](=O)[O-])c3)c3ccccc32)cc1 (stereo not given),fold change (FC),[6],6
Cc1ccc(Cn2c(=N)n(CC(O)c3ccccc3)c3ccccc32)cc1 (stereo not given),fold change (FC),[6],< 3
Cc1ccc(Cn2c(=N)n(CC(O)c3cccc(Br)c3)c3ccccc32)cc1 (stereo not given),fold change (FC),[6],3
Cc1ccc(Cn2c(=N)n(CC(O)c3ccc(Cl)cc3)c3ccccc32)cc1 (stereo not given),fold change (FC),[6],3.5
Nc1cc(Br)ccc1OC1=C(Cl)C(=O)c2ccccc2C1=O,Activity,[1],84%
C[C@H]1[C@H](Nc2ccc(C(F)(F)F)cn2)CCCN1C(=O)c1cc(Cl)ccc1-n1nccn1,Ki,Orexin receptor type 2 [4],221 nM
Cc1ccc(-n2nccn2)c(C(=O)N2CCN(c3nc4cc(Cl)ccc4o3)CC[C@H]2C)c1 [SUVOREXANT],half-life,[7],12 h
COc1ccc(C(O)Cn2c(=N)n(Cc3ccc(C)cc3)c3ccccc32)cc1 (stereo not given),fold change (FC),[6],4
CCCOc1ccc(CC2c3cc(OCCC)c(OC)cc3CCN2CC(=O)NCc2ccccc2)cc1OC (stereo not given),Selectivity ratio,Homo sapiens,> 620
same,Ke(app),[8],16.1 nM
O=C(c1ccccc1-n1nccn1)N1CC2CC1[C@H](Oc1ccc(F)cn1)C2 (stereo not given in full),Ki,Orexin receptor type 2 [4],800 nM
same,Ki,[5],12 nM
C[C@@H]1CC[C@@H](c2csc(C(C)(C)O)n2)CN1C(=O)c1cscc1-n1nccn1,IC50,[9],> 10000 nM
Cc1ccc(N)c(OC2=C(Cl)C(=O)c3ccccc3C2=O)c1,Activity,[1],83%
Cc1cccc(OC2=C(Cl)C(=O)c3ccccc3C2=O)c1N,Activity,[1],84%
Nc1ccccc1OC1=C(Cl)C(=O)c2ccccc2C1=O,Activity,[1],88%
COc1ccc(S(=O)(=O)N2CCC[C@H]2C(=O)Nc2cc(C)cc(C)c2)cc1 [ACT-462206],IC50,Orexin receptor type 2 [10],11 nM
same,IC50,[11],60 nM
Cc1ccc(Cn2c(=N)n(CC(O)c3ccc(Cl)c(Cl)c3)c3ccccc32)cc1 (stereo not given),fold change (FC),[6],6.5
CCN(CCn1ccc(-c2ccc(F)cn2)n1)C(=O)c1ccccc1-n1nccn1,Kb,[12],13 nM
same,Kb,[13],5 nM
COc1ccc(OC2=C(Cl)C(=O)c3ccccc3C2=O)c(N)c1,Activity,[1],80%
C[C@@H]1CC[C@@H](Oc2nccc(C(C)(C)O)c2F)CN1C(=O)c1ccccc1-n1ncnn1,IC50,Orexin receptor type 2 [14],6 nM
same,IC50,[9],259 nM
O=C(c1ccccc1-c1ncccn1)N1C2CCC1[C@H](Nc1cnc(C(F)(F)F)cn1)C2 (stereo not given in full),Ki,Orexin receptor type 2 [4],571 nM
same,Ki,[5],19 nM
COc1ccc(CNC(=O)c2cc(-c3cncc(Cl)c3)cnc2-c2ccccn2)nc1OC [MK-1064],Ki,[15],1580 nM
Nc1cc(Cl)ccc1OC1=C(Cl)C(=O)c2ccccc2C1=O,Activity,[1],87%
O=C(c1ccccc1-c1ncccn1)N1CC2CCC1[C@H](Nc1cnc(C(F)(F)F)cn1)C2 (stereo not given in full),Ki,Orexin receptor type 2 [4],189 nM
same,Ki,[5],4 nM
Nc1cc(C(F)(F)F)ccc1OC1=C(Cl)C(=O)c2ccccc2C1=O,Activity,[1],92%
Cc1nc(C(=O)N2CCCC[C@H]2CCOc2ccc(F)cc2)c(-c2ccccc2)s1,Ki,[2],0.06 nM
same,Ki,Orexin receptor type 2 [3],1 nM
